From patent publication US9353061B2, “3,5,N-trihydroxy-alkanamide and derivatives: method for making same and use thereof” (Academia Sinica, priority 2012, dated 2016)
Where “and” joins values, the source holds several entries; their conditions need not be identical. Identical values can stand only once. Like-named read-outs stand apart in the source and are kept apart here.

How the values were obtained:
[1] = tested on: HS68 normal human fibroblast cells; assay: cells; format: cell-based; details: for IC50 / cytotoxicity on HS68 normal cells (in words): 72 h; for IC50: MTT assay; for cytotoxicity on HS68 normal cells (in words): MTT, FIG. 4B/4D; for toxicity to normal cells at 100 μM: HS68, 100 μM
Procedure: (§4) The cell viability was measured by MTT assay.
(§5) A549 human lung carcinoma cells from American Type Culture Collection (ATCC) were cultured in Dulbecco's Modified Eagle Medium (DMEM). […] All mediums were supplemented with 10% fetal bovine serum (FBS), 100 U/mL penicillin G and 100 mg/mL streptomycin sulfate. Cells were maintained in a humidified incubator containing 5% CO2 in air. Cells were subcultured by trypsinization in laminar flow when grew about 80% in the culture dishes.
(§6) A549 cells were seeded at 3000 cells/well in 96-well plates and maintained for 14-16 hours. Cells were treated with dimethylsulfoxide DMSO or test compounds in varied concentrations for 72 h. Cells were then washed with PBS twice, added a medium containing 3-(4,5-dimethylthiazol-2-yl)-2,5-diphenyltetrazolium bromide (MTT) at a final concentration of 0.5 mg/mL, and incubated for 4 h at 37° C. in a humidified incubator containing 5% CO2 in air. Cells having functional succinate dehydrogenase of mitochondria would convert MTT to formazan. Then, the medium was replaced with 100 μL of DMSO for 30 min at room temperature, and the 96-well plate was read by an ELISA reader at 550 nm to get the absorbance density values. The IC50 values of death cell lines were calculated accordingly.

[2] = tested on: MEF normal mouse fibroblast cells; assay: cells; format: cell-based; details: for IC50 / cytotoxicity on MEF normal cells (in words): 72 h; for IC50: MTT assay; for SI A549/MEF (selectivity index): ratio of IC50 values, cancer cell and normal cell; for cytotoxicity on MEF normal cells (in words): MTT, FIG. 4C/4D; for toxicity to normal cells at 100 μM: MEF
Procedure: as §4, §5, §6

[3] = tested on: A549 human lung cancer cells; assay: Cell proliferation (MTT) assay, cancer cells; details: for cell viability of A549 (in words): MTT, FIG. 4A/4D
Procedure: as §4, §5, §6

[4] = molecular target: HMG-CoA reductase (HMGR) (Homo sapiens (Human), UniProt P04035); assay: HMG-CoA reductase activity assay (NADPH consumption, Sigma kit); format: biochemical; details: for HMGR inhibition (in words): enzyme-based; for IC50: human recombinant protein
Chain of HMG-CoA reductase (HMGR) (P04035 426-888): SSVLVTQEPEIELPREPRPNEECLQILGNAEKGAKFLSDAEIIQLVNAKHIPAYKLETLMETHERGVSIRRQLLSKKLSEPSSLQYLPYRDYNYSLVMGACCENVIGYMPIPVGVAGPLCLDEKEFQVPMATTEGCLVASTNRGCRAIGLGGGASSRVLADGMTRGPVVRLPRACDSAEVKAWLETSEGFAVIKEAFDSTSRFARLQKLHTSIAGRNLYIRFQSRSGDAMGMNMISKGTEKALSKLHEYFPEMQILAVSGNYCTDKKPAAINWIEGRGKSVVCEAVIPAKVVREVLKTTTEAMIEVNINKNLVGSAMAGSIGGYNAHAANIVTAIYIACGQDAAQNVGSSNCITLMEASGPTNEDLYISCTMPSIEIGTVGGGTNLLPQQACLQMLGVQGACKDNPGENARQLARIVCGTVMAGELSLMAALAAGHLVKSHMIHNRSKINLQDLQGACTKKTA
Procedure: (§1) The HMGR activity was performed using HMG-CoA reductase assay kit from Sigma-Aldrich with the human recombinant protein or 100 μg total cell lysates from A549 cells. […] HMGR activity under defined assay conditions, containing NADPH and HMG-CoA substrate in a final volume of 0.2 mL of 100 mM potassium phosphatate buffer (120 mM KCl, 1 mM EDTA, 5 mM DTT, pH 7.4), were initiated in the presence or absence (control) of test compounds dissolved in dimethylsulfoxide (DMSO). The rates of NADPH consumption were monitored every 20 seconds, for up to 10 minutes, by spectrophotometer at 37° C. and 340 nm. The HMGR activity was calculated as a percentage of activity compared with the control group at 5 min. The IC50 values were calculated from software SigmaPlot.
(§2) HDAC fluorometric activity assay was performed using Fluor-de-Lys as the substrate (BIOMOL, Plymouth Meeting, Pa., USA), and HMGR inhibition was evaluated by the […].

[5] = tested on: AOM/DSS-induced colitis-associated colorectal cancer; assay: AOM/DSS colitis-associated colorectal cancer model, treatment after AOM/DSS; details: for AOM/DSS-induced weight loss / clinical symptoms: oral 100 mg/kg, 5 days a week for 3 weeks after AOM/DSS; for histological examination of colon: treatment after AOM/DSS
Procedure: Lova-HA and Atorva-HA were dissolved in corn oil. Lova-HA (100 mg/kg), Atorva-HA (100 mg/kg) or the vehicle (corn oil) was orally administered after AOM/DSS treatment 5 days a week for 3 weeks. All mice were sacrificed after 12 weeks and colon segments were fixed in formalin.
To further investigate whether Lova-HA and Atorva-HA can treat cancer, a C57/BL6 mouse model of colitis-associated CRC was performed after the AOM and 3 cycles of DSS treatment. […] The formation of polyps and colonic tumors were macroscopically observed and counted.

[6] = molecular target: HDAC2 (Homo sapiens (Human), UniProt Q92769); assay: HDAC fluorimetric activity assay (Fluor-de-Lys); format: biochemical
Chain of HDAC2 (Q92769 whole entry): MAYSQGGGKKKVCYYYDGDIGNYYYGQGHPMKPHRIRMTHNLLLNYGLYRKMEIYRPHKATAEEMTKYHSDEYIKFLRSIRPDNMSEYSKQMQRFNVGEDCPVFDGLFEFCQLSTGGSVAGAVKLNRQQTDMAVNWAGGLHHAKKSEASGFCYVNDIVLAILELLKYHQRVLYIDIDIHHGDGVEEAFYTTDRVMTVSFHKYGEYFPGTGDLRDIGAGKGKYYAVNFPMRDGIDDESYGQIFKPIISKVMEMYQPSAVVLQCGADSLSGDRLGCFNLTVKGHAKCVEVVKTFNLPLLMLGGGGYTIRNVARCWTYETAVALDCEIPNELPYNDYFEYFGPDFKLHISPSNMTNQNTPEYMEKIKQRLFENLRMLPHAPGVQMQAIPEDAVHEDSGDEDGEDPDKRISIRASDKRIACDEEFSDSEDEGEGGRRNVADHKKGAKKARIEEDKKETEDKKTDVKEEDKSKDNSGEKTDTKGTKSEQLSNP

[7] = molecular target: HDAC1 (Homo sapiens (Human), UniProt Q13547); assay: HDAC fluorimetric activity assay (Fluor-de-Lys); format: biochemical; details: recombinant HDAC1
Chain of HDAC1 (Q13547 whole entry): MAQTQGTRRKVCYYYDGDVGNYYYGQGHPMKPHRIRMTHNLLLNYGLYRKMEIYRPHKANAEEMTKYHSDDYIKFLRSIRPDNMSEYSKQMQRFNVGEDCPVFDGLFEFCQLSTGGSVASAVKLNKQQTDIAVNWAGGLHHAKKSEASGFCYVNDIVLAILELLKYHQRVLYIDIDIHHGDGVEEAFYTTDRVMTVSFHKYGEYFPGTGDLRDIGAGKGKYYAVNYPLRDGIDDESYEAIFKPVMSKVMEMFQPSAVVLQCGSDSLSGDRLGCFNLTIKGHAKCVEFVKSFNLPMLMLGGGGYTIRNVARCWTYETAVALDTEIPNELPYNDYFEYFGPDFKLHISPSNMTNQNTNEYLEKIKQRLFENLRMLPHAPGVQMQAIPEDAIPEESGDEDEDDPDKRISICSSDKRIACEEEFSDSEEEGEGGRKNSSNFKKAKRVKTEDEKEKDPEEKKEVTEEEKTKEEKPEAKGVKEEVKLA
Procedure: (§3) The HDAC activity was performed using the HDAC fluorescent activity assay kit (BIOMOL, Plymouth Meeting, Pa., USA) according to the manufacturer's instructions. Briefly, recombinant proteins of HDAC1 or HDAC6 were incubated with test compounds, and HDAC reaction was initiated by addition of Fluor-de-Lys substrate. Samples were incubated for 10 min at room temperature, followed by adding developer to stop the reaction. Fluorescence was measured by fluorometric reader with excitation at 360 nm and emission at 460 nm. The HDAC activity was expressed as arbitrary fluorescence units (AFU). The HDAC activity was calculated as a percentage of activity compared with the control group. The half maximal inhibitory concentration (IC50) values for the test compounds were calculated from software SigmaPlot.
as §2

[8] = molecular target: HDAC6 (Homo sapiens (Human), UniProt Q9UBN7); assay: HDAC fluorimetric activity assay (Fluor-de-Lys); format: biochemical; details: recombinant HDAC6
Chain of HDAC6 (Q9UBN7 whole entry): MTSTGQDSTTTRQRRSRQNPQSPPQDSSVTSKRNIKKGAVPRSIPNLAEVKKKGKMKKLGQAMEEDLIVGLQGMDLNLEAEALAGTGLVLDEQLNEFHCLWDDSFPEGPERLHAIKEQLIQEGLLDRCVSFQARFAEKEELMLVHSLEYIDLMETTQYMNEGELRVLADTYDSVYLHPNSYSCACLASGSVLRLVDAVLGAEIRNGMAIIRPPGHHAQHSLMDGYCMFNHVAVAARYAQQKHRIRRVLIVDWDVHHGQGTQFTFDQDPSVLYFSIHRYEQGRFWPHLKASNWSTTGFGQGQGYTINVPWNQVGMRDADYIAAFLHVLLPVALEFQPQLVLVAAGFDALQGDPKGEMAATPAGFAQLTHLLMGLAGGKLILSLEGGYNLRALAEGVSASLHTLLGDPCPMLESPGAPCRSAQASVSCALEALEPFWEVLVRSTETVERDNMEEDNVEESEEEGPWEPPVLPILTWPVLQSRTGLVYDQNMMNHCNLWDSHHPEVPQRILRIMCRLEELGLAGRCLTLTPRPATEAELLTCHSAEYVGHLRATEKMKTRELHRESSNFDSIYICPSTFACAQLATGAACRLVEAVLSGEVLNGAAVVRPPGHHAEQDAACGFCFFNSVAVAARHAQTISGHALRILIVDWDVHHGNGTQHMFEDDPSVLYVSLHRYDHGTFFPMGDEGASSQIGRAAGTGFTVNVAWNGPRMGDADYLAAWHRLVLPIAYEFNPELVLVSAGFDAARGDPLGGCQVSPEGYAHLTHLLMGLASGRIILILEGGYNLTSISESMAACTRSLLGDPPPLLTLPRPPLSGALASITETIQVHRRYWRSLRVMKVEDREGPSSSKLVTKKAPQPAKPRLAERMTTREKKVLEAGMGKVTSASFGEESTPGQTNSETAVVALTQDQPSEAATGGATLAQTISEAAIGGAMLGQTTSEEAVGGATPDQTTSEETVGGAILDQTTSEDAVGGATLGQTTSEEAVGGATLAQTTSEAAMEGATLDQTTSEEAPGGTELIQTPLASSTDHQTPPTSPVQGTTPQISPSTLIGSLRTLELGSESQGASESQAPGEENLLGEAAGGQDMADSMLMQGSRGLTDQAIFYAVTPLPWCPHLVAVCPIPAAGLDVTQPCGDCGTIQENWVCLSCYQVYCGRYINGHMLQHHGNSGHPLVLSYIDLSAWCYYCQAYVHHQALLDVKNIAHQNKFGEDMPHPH
Procedure: as §3, §2

[9] = tested on: acetyl-histone H3 and acetyl-tubulin in A549 lung cancer cells; assay: Western blot of acetyl-histone H3 and acetyl-tubulin; format: cell-based, human; details: dose-dependent, FIG. 2
Procedure: FIG. 2 is a photo showing the effect of test compounds on acetylation of histone H3 and tubulin in A549 lung cancer cell lines. […] A549 cells were treated with the indicated doses of test compounds. Total cell lysates were prepared and subjected to SDS-PAGE using adequate percentage of polyacrylamide gels. Immunoblotting was performed using specific antibodies to evaluate the expression of different proteins.
Following treatment with test compounds, cells were lysed on ice. Total cell lysates were centrifuged at 13,000 rpm for 15 min at 4° C., and then subjected to SDS-PAGE using adequate percentage polyacrylamide gels. Immunoblotting was performed using specific antibodies to evaluate the expression of different proteins.
A549 lung cancer cells were treated with the test compound, and the expression of acetyl-histone H3 and acetyl-tubulin were analyzed by SDS-PAGE using immunoblotting.

[10] = molecular target: HMG-CoA reductase in A549 lung cancer cells (Homo sapiens (Human), UniProt P04035); assay: Cell-based assay of HMGR inhibition (cell lysates); details: A549 cells treated 24 hours, FIG. 3
Chain of HMG-CoA reductase in A549 lung cancer cells (P04035 whole entry): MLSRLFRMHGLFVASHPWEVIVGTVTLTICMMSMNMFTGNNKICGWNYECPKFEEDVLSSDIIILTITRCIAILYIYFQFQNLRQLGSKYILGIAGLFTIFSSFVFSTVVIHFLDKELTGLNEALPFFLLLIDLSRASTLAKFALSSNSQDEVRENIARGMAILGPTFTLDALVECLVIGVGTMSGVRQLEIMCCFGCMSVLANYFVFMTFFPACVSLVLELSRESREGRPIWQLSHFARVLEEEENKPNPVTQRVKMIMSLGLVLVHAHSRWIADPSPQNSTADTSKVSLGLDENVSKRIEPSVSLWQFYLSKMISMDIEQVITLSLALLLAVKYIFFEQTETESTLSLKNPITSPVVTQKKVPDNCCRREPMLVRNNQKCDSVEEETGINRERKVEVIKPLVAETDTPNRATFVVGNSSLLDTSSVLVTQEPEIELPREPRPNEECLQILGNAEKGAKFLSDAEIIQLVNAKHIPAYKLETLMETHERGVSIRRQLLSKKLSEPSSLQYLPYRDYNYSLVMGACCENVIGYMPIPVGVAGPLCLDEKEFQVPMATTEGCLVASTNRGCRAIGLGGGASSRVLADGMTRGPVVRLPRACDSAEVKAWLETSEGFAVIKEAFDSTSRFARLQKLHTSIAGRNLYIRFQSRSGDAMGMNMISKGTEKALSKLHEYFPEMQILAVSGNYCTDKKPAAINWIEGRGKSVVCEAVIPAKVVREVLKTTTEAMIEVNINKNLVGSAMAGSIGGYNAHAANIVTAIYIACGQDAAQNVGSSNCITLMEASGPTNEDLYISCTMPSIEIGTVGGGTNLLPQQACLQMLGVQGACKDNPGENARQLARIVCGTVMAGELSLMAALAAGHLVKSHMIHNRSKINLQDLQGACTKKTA
Procedure: as §1

[11] = tested on: AOM/DSS-induced colitis-associated colorectal cancer; assay: AOM/DSS colitis-associated colorectal cancer model, chemoprevention
Text: All mice were sacrificed at 9 weeks and colon segments were fixed by formalin.
Male C57BL6 mice obtained at 4-5 weeks of age were divided into four groups. […] All mice were sacrificed after 9 weeks and colon segments were fixed in formalin. H&E stain colonic sections were examined for colonic aberrant crypts.
The formation of polyps and colonic tumors were macroscopically observed and counted.

[12] = Homo sapiens, A549, 72 h, read-out: IC50 (μM) A549, 72 h, MTT assay

Row | Structure (SMILES) | IC50 ([1]; Homo sapiens, Hs68) [µM] | IC50 ([2]; Mus musculus, Fibroblast) [µM] | SI A549/MEF (selectivity index) [2] | cytotoxicity on HS68 normal cells (in words) [1] | cytotoxicity on MEF normal cells (in words) [2] | HMGR inhibition (in words) [4] | IC50 [4] [nM] | AOM/DSS-induced weight loss [5] | clinical symptoms [5] | histological examination of colon [5] | IC50 [6] | IC50 [7] [nM] | IC50 [8] [nM] | toxicity to normal cells at 100 μM [1] | toxicity to normal cells at 100 μM [2] | IC50 [3, 12] [µM] | further results
1 | CCC(C)(C)C(=O)O[C@H]1C[C@@H](C)C=C2C=C[C@H](C)[C@H](CC[C@@H]3C[C@@H](O)CC(=O)O3)[C@H]21 [simvastatin, reference compound] | 26.4 ± 2.1 | 36.7 ± 4.4 | 2.3 | – | – | – | – | – | – | – | – | – | – | – | – | – | IC50 ([3]; Homo sapiens, A549, 72 h, read-out: IC50 (μM) A549): 16.3 ± 0.1 µM
2 | O=C(CCCCCCC(=O)Nc1ccccc1)NO [SAHA, suberoylanalide hydroxamic acid, reference compound] | – | – | – | toxic to normal cells | toxic to normal cells | no significant inhibition | > 10000 | could not protect | attenuated | surface tumor necrosis | – | – | – | – | – | – | cell viability of A549 (in words) ([3]; 72 h): killed cancer cells
3 | CC(C)c1nc(N(C)S(C)(=O)=O)nc(-c2ccc(F)cc2)c1/C=C/[C@@H](O)C[C@@H](O)CC(=O)NO [Rosuva-HA, (3R,5S,6E)-7-[4-(4-fluorophenyl)-2-(N-methylmethanesulfonamido)-6-isopropylpyrimidin-5-yl]-3,5-dihydroxy-N-hydroxy-6-heptenamide] | – | – | – | – | – | potent HMGR inhibition | 43.7 ± 1.6 | – | – | – | 400 to 630 nM and 600 nM | 125 ± 7.1 | 133 ± 5.5 | – | – | – | acetylation of histone H3 and tubulin [9]: promoted the acetylations of histone and tubulin
4 | CC(C)c1c(C(=O)Nc2ccccc2)c(-c2ccccc2)c(-c2ccc(F)cc2)n1CC[C@@H](O)C[C@@H](O)CC(=O)NO [Atorva-HA, (3R,5R)-7-[2-(4-Fluoro-phenyl)-5-isopropyl-3-phenyl-4-phenylcarbamoylpyrrol-1-yl]-3,5-dihydroxy-N-hydroxyheptanamide] | > 100 | > 100 | >5.7 | did not have cytotoxicity | did not have cytotoxicity | potent HMGR inhibition | 9.2 | could protect the weight loss | attenuated | surface tumor necrosis | 467 ± 19 nM | 117 | 83.7 | not toxic | not toxic | < 20 | HMGR inhibition in cell lysates compared with lovastatin [10]: equal or even better activity than lovastatin; cell viability of A549 (in words) ([3]; 72 h): reduced; IC50 ([3]; read-out: IC50 (μM) A549, 72 h, MTT assay, listed as Atorva-HA (5)): 17.5 ± 4.7 µM; acetylation of histone H3 and tubulin [9]: promoted the acetylations of histone and tubulin; number and size of tumors ([5]; 100 mg/kg oral): markedly reduced the number and size of tumors
5 | CCC(C)(C)C(=O)O[C@H]1C[C@@H](C)C=C2C=C[C@H](C)[C@H](CC[C@@H](O)C[C@@H](O)CC(=O)NO)[C@H]21 [Simva-HA, (3R,5R)-7-{(1S,2S,6R,8S,8aR)-Hexahydro-2,6-dimethyl-8-[2-dimethylbutyryloxy]naphthalenyl}-3,5-dihydroxy-N-hydroxyheptanamide] | > 100 | > 100 | >5.0 | did not have cytotoxicity | did not have cytotoxicity | – | 11.4 | – | – | – | 400 to 630 nM | 60.7 ± 3.2 | 67.1 | not toxic | not toxic | < 20 | IC50 ([3]; read-out: IC50 (μM) A549, 72 h, MTT assay, listed as Simva-HA (2)): 20 ± 3.1 µM
6 | CC[C@H](C)C(=O)O[C@H]1C[C@@H](C)C=C2C=C[C@H](C)[C@H](CC[C@@H]3C[C@@H](O)CC(=O)O3)[C@H]21 [Lovastatin, lovastatin] | – | – | – | – | – | – | – | could not protect | not reversed | adenocarcinomas with dysplasia | – | – | – | – | – | – | IC50 [1]: 23.2 ± 3.5 µM; IC50 [2]: 35 ± 5.9 µM; colon length ([11]; 50 mg/kg oral): 8.0±0.9 cm; histological examination of colon ([11]; 50 mg/kg oral): adenocarcinomas with dysplasia; bleeding and diarrhea (clinical symptoms) ([11]; oral, Lova-HA 25 or 50 mg/kg, lovastatin 50 mg/kg): not reversed; body weight loss after AOM/DSS ([11]; oral, Lova-HA 25 or 50 mg/kg, lovastatin 50 mg/kg, 5 days a week for 8 weeks): but not lovastatin could protect the weight loss
7 | CC(C)c1c(C(=O)Nc2ccccc2)c(-c2ccccc2)c(-c2ccc(F)cc2)n1CC[C@@H](O)C[C@@H](O)CC(=O)O [Atorvastatin, atorvastatin] | – | 30.7 ± 3.2 | – | – | – | – | – | could not protect | not reversed | adenocarcinomas with dysplasia | – | – | – | – | – | – | –
8 | CCC(C)C(=O)O[C@H]1C[C@@H](C)C=C2C=C[C@H](C)[C@H](CC[C@@H](O)C[C@@H](O)CC(=O)NO)[C@H]21 (some centres unmarked) [Lova-HA] | > 100 | > 100 | >5.6 | did not have cytotoxicity | did not have cytotoxicity | – | 16.8 ± 1.9 | – | – | – | 468 ± 27.2 nM | 60.1 ± 5.3 | 50.5 ± 4 | not toxic | not toxic | < 20 | IC50 ([3]; read-out: IC50 (μM) A549, 72 h, MTT assay, listed as Lova-HA (1)): 18.2 ± 3.4 µM; colon length ([11]; 25 mg/kg oral): 8.6±0.4 cm; colon length ([11]; 50 mg/kg oral): 10.1±0.9 cm
